Test results published in PMC10151572, “The identification of viral ribonucleotide reductase encoded by ORF23 and ORF141 genes and effect on CyHV-2 replication” (Frontiers in Microbiology, 2023).

Experiments:
[1] = biological target: T1, CyHV-2 RR (ORF23-GST + ORF141-His) (Cyprinid herpesvirus 2, UniProt K7PBF0+K7PBQ3); assay: RR activity, dCDP formation by HPLC after borate column; format: biochemical; conditions: hydroxyurea 80 μM; 10 μg of both recombinant proteins; CDP 80 μM, ATP 2.7 mM, other nucleotides; 50 mM HEPES-KOH, 5 mM MgCl2, 50 mM DTT, 20 mM ferrous ammonium sulfate; 1 h at 4°C
T1 construct: gene CyHV2_ORF23; recombinant ORF23-GST and ORF141-His mixed in vitro; RR described in general as two homodimers (alpha2beta2)

[2] = biological target: T1, CyHV-2 RR (ORF23-GST + ORF141-His); assay: as above; format: biochemical; conditions: CDP 80 μM with ATP 2.7 mM, dATP, dTTP, dGTP, UDP, ADP, GDP; both subunits needed; 50 mM HEPES-KOH, 5 mM MgCl2, 50 mM DTT, 20 mM ferrous ammonium sulfate; 1 h at 4°C

Row | SMILES | % activity reduction at 80 μM [1] [%] | RR activity, dCDP formation by HPLC after borate column [2]
1 | NC(=O)NO [hydroxyurea] | 52 | 
2 | Nc1ccn([C@@H]2O[C@H](COP(=O)(O)OP(=O)(O)O)[C@@H](O)[C@H]2O)c(=O)n1 [CDP] |  | interaction between ORF23-GST and ORF141-His proteins is essential for catalyzing the reduction of CDP to
